Results on 14 compounds are retold here after patent US9499550B2 (BRISTOL-MYERS SQUIBB COMPANY, priority 2012, dated 2016).

In test [1] the test system is HCV genotype 1a (H77 strain) replicon in HUH-7 cells. The test can be described thus: HCV replicon luciferase reporter assay, genotype 1a. It is filed as cell-based. Particulars: Hepatitis C virus, Huh-7, 72 h, HCV genotype 1a replicon luciferase, 3 days incubation, read-out: LE_1a (EC50, range). In a few lines: (§1)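 Replicon inhibition for both genotypes was measured as Renilla luciferase signal (EnduRen, 7.5 μM final, 2 h) after 3-day, 37° C exposure of replicon-bearing HUH-7 cells in 4% FCS DMEM, 0.5% DMSO. The 1b construct carries S1179I; the 1a H77 construct carries P1496L and S2204I. Twenty-point, 3-fold dilutions were fitted four-parametrically for EC50, and CC50 was taken from multiplexed Cell Titer-Blue.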

Test [2] relates to HCV genotype 1b (Con1) replicon in HUH-7 cells. The test can be described thus: HCV replicon luciferase reporter assay, genotype 1b. It is filed as cell-based. Particulars: Hepatitis C virus, Huh-7, 72 h, HCV genotype 1b replicon luciferase, 3 days incubation, read-out: LE_1b (EC50, range). The procedure, abridged:
as §1

Where two headings read alike, the source gives them in different places.

Turning to `C=COc1cnc(O[C@@H]2C[C@H]3C(=O)N[C@]4(C(=O)NS(=O)(=O)C5(C)CC5)C[C@H]4/C=C\CC[C@@H](C)C[C@@H](C)[C@H](NC(=O)OC(C)(C)C)C(=O)N3C2)c2ccccc12` [Compound 4134, tert-butyl (2R,6S,7R,9R,13aS,14aR,16aS,Z)-7,9-dimethyl-14a-(1-methylcyclopropylsulfonylcarbamoyl)-5,16-dioxo-2-(4-(vinyloxy)isoquinolin-1-yloxy)-1,2,3,5,6,7,8,9,10,11,13a,14,14a,15,16,16a-hexadecahydrocyclopropa[e]pyrrolo[1,2-a][1,4]diazacyclopentadecin-6-ylcarbamate], the EC50 in test [1] and in test [2] was below 5.46 nM throughout.

As to `COc1ccc2c(O[C@@H]3C[C@H]4C(=O)N[C@]5(C(=O)NS(=O)(=O)C6(C)CC6)C[C@H]5/C=C\CC[C@@H](C)C[C@@H](C)[C@H](NC(=O)OC(C)(C)C(F)(F)F)C(=O)N4C3)ncc(N3CCOCC3)c2c1` [Compound 4135], the EC50 in test [1] (GETYPE1A) and in test [2] (GETYPE1B) was below 5.46 nM throughout.

For the compound `CCOc1cnc(O[C@@H]2C[C@H]3C(=O)N[C@]4(C(=O)NS(=O)(=O)C5(C)CC5)C[C@H]4/C=C\CC[C@@H](C)C[C@@H](C)[C@H](NC(=O)OC(C)(C)C)C(=O)N3C2)c2ccc(OC)cc12` [Compound 4136, tert-butyl (2R,6S,7R,9R,13aS,14aR,16aS,Z)-2-(4-ethoxy-6-methoxyisoquinolin-1-yloxy)-7,9-dimethyl-14a-(1-methylcyclopropylsulfonylcarbamoyl)-5,16-dioxo-1,2,3,5,6,7,8,9,10,11,13a,14,14a,15,16,16a-hexadecahydrocyclopropa[e]pyrrolo[1,2-a][1,4]diazacyclopentadecin-6-ylcarbamate], the EC50 in test [1] and in test [2] was below 5.46 nM each time.

As to `COc1ccc2c(O[C@@H]3C[C@H]4C(=O)N[C@]5(C(=O)NS(=O)(=O)C6(C)CC6)C[C@H]5/C=C\CC[C@@H](C)C[C@@H](C)[C@H](NC(=O)OC(C)(C)C)C(=O)N4C3)ncc(N3CCOCC3)c2c1` [Compound 4137, tert-butyl (2R,6S,7R,9R,13aS,14aR,16aS,Z)-2-(6-methoxy-4-morpholinoisoquinolin-1-yloxy)-7,9-dimethyl-14a-(1-methylcyclopropylsulfonylcarbamoyl)-5,16-dioxo-1,2,3,5,6,7,8,9,10,11,13a,14,14a,15,16,16a-hexadecahydrocyclopropa[e]pyrrolo[1,2-a][1,4]diazacyclopentadecin-6-ylcarbamate], the EC50 in test [1] and in test [2] was below 5.46 nM in each case.

With `CCOc1cnc(O[C@@H]2C[C@H]3C(=O)N[C@]4(C(=O)NS(=O)(=O)C5(C)CC5)C[C@H]4/C=C\CC[C@@H](C)C[C@@H](C)[C@H](NC(=O)Oc4ccc(F)cc4F)C(=O)N3C2)c2ccccc12` [Compound 4138, 2,4-difluorophenyl (2R,6S,7R,9R,13aS,14aR,16aS,Z)-2-(4-ethoxyisoquinolin-1-yloxy)-7,9-dimethyl-14a-(1-methylcyclopropylsulfonylcarbamoyl)-5,16-dioxo-1,2,3,5,6,7,8,9,10,11,13a,14,14a,15,16,16a-hexadecahydrocyclopropa[e]pyrrolo[1,2-a][1,4]diazacyclopentadecin-6-ylcarbamate], the EC50 in test [1] and in test [2] was 4.82 to 103 nM each time.

In the case of `CCOc1cnc(O[C@@H]2C[C@H]3C(=O)N[C@]4(C(=O)NS(=O)(=O)C5(C)CC5)C[C@H]4/C=C\CC[C@@H](C)C[C@@H](C)[C@H](NC(=O)Oc4ccccc4F)C(=O)N3C2)c2ccccc12` [Compound 4139, 2-fluorophenyl (2R,6S,7R,9R,13aS,14aR,16aS,Z)-2-(4-ethoxyisoquinolin-1-yloxy)-7,9-dimethyl-14a-(1-methylcyclopropylsulfonylcarbamoyl)-5,16-dioxo-1,2,3,5,6,7,8,9,10,11,13a,14,14a,15,16,16a-hexadecahydrocyclopropa[e]pyrrolo[1,2-a][1,4]diazacyclopentadecin-6-ylcarbamate], the EC50 in test [1] and in test [2] was 4.82 to 103 nM in each case.

For the compound `CCOc1cnc(O[C@@H]2C[C@H]3C(=O)N[C@]4(C(=O)NS(=O)(=O)C5(C)CC5)C[C@H]4/C=C\CC[C@@H](C)C[C@@H](C)[C@H](NC(=O)Oc4ccccc4)C(=O)N3C2)c2ccccc12` [Compound 4140, phenyl (2R,6S,7R,9R,13aS,14aR,16aS,Z)-2-(4-ethoxyisoquinolin-1-yloxy)-7,9-dimethyl-14a-(1-methylcyclopropylsulfonylcarbamoyl)-5,16-dioxo-1,2,3,5,6,7,8,9,10,11,13a,14,14a,15,16,16a-hexadecahydrocyclopropa[e]pyrrolo[1,2-a][1,4]diazacyclopentadecin-6-ylcarbamate], the EC50 in test [1] and in test [2] was below 5.46 nM in each case.

On to `COc1ccc2c(O[C@@H]3C[C@H]4C(=O)N[C@]5(C(=O)NS(=O)(=O)C6(C)CC6)C[C@H]5/C=C\CC[C@@H](C)C[C@@H](C)[C@H](NC(=O)C5CCN(C(C)=O)CC5)C(=O)N4C3)ncc(OC)c2c1` [Compound 4141, (2R,6S,7R,9R,13aS,14aR,16aS,Z)-6-(1-acetylpiperidine-4-carboxamido)-2-(4,6-dimethoxyisoquinolin-1-yloxy)-7,9-dimethyl-N-(1-methylcyclopropylsulfonyl)-5,16-dioxo-1,2,3,5,6,7,8,9,10,11,13a,14,14a,15,16,16a-hexadecahydrocyclopropa[e]pyrrolo[1,2-a][1,4]diazacyclopentadecine-14a-carboxamide], for which the EC50 in test [1] and in test [2] was 4.82 to 103 nM throughout.

Turning to `COc1ccc2c(O[C@@H]3C[C@H]4C(=O)N[C@]5(C(=O)NS(=O)(=O)C6(C)CC6)C[C@H]5/C=C\CC[C@@H](C)C[C@@H](C)[C@H](NC(=O)c5ccncc5F)C(=O)N4C3)ncc(OC)c2c1` [Compound 4142, (2R,6S,7R,9R,13aS,14aR,16aS,Z)-2-(4,6-dimethoxyisoquinolin-1-yloxy)-6-(3-fluoroisonicotinamido)-7,9-dimethyl-N-(1-methylcyclopropylsulfonyl)-5,16-dioxo-1,2,3,5,6,7,8,9,10,11,13a,14,14a,15,16,16a-hexadecahydrocyclopropa[e]pyrrolo[1,2-a][1,4]diazacyclopentadecine-14a-carboxamide], the EC50 in test [1] and in test [2] was below 5.46 nM in each case.

Take `COc1ccc2c(O[C@@H]3C[C@H]4C(=O)N[C@]5(C(=O)NS(=O)(=O)C6(C)CC6)C[C@H]5/C=C\CC[C@@H](C)C[C@@H](C)[C@H](NC(=O)c5ccn(C)c(=O)c5)C(=O)N4C3)ncc(OC)c2c1` [Compound 4143, (2R,6S,7R,9R,13aS,14aR,16aS,Z)-2-(4,6-dimethoxyisoquinolin-1-yloxy)-7,9-dimethyl-6-(1-methyl-2-oxo-1,2-dihydropyridine-4-carboxamido)-N-(1-methylcyclopropylsulfonyl)-5,16-dioxo-1,2,3,5,6,7,8,9,10,11,13a,14,14a,15,16,16a-hexadecahydrocyclopropa[e]pyrrolo[1,2-a][1,4]diazacyclopentadecine-14a-carboxamide]: the EC50 in test [1] and in test [2] was 4.82 to 103 nM throughout.

With `COc1ccc2c(O[C@@H]3C[C@H]4C(=O)N[C@]5(C(=O)NS(=O)(=O)C6(C)CC6)C[C@H]5/C=C\CC[C@@H](C)C[C@@H](C)[C@H](NC(=O)OC(C)(C)C)C(=O)N4C3)ncnc2c1` [Compound 4144, tert-butyl (2R,6S,7R,9R,13aS,14aR,16aS,Z)-2-(7-methoxyquinazolin-4-yloxy)-7,9-dimethyl-14a-(1-methylcyclopropylsulfonylcarbamoyl)-5,16-dioxo-1,2,3,5,6,7,8,9,10,11,13a,14,14a,15,16,16a-hexadecahydrocyclopropa[e]pyrrolo[1,2-a][1,4]diazacyclopentadecin-6-ylcarbamate], the EC50 in test [1] and in test [2] was below 5.46 nM throughout.

With `C[C@@H]1CC/C=C\[C@@H]2C[C@@]2(C(=O)NS(=O)(=O)C2(C)CC2)NC(=O)[C@@H]2C[C@@H](Oc3ncnc4c(Cl)cccc34)CN2C(=O)[C@@H](NC(=O)OC(C)(C)C)[C@H](C)C1` [Compound 4145, tert-butyl (2R,6S,7R,9R,13aS,14aR,16aS,Z)-2-(8-chloroquinazolin-4-yloxy)-7,9-dimethyl-14a-(1-methylcyclopropylsulfonylcarbamoyl)-5,16-dioxo-1,2,3,5,6,7,8,9,10,11,13a,14,14a,15,16,16a-hexadecahydrocyclopropa[e]pyrrolo[1,2-a][1,4]diazacyclopentadecin-6-ylcarbamate], the EC50 in test [1] and in test [2] was below 5.46 nM each time.

With `COc1ccc2c(O[C@@H]3C[C@H]4C(=O)N[C@]5(C(=O)NS(=O)(=O)C6(CF)CC6)C[C@H]5/C=C\CC[C@@H](C)C[C@@H](C)[C@H](NC(=O)OC(C)(C)C)C(=O)N4C3)nccc2c1` [Compound 4147, tert-butyl (2R,6S,7R,9R,13aS,14aR,16aS,Z)-14a-(1-(fluoromethyl)cyclopropylsulfonylcarbamoyl)-2-(6-methoxyisoquinolin-1-yloxy)-7,9-dimethyl-5,16-dioxo-1,2,3,5,6,7,8,9,10,11,13a,14,14a,15,16,16a-hexadecahydrocyclopropa[e]pyrrolo[1,2-a][1,4]diazacyclopentadecin-6-ylcarbamate], the EC50 in test [1] and in test [2] was below 5.46 nM throughout.

With `COc1ccc2c(O[C@@H]3C[C@H]4C(=O)N[C@]5(C(=O)NS(=O)(=O)C6(CF)CC6)C[C@H]5/C=C\CC[C@@H](C)C[C@@H](C)[C@H](NC(=O)OC(C)(C)C(F)(F)F)C(=O)N4C3)cc(-c3ccc(OC(C)C)cc3)nc2c1` [Compound 4148], the EC50 in test [1] (GETYPE1A) and in test [2] (GETYPE1B) was below 5.46 nM each time.
